Results: US20040018150A1, “Prodrugs of phosphonate nucleotide analogues and methods for selecting and making same” (priority 2003, published 2004)
Where two headings read alike, the source gives them in different places.

Tests used:
[1] = Stability in human plasma; format: in vitro ADME
Procedure: (§1) The in vitro metabolism and stability of separated diastereomers were determined in PLCE, MT-2 extract and human plasma. A biological sample listed below, 80 μL, was transferred into a screw-capped centrifuge tube and incubated at 37° C. for 5 min. A solution containing 0.2 mg/mL of the test compound in a suitable buffer, 20 μL, was added to the biological sample and mixed. The reaction mixture, 20 μL, was immediately sampled and mixed with 60 μL of methanol containing 0.015 mg/mL of 2-hydroxymethylnaphthalene as an internal standard for HPLC analysis. The sample was taken as the time-zero sample. Then, at specific time points, the reaction mixture, 20 μL, was sampled and mixed with 60 μL of methanol containing the internal standard. The mixture thus obtained was centrifuged at 15,000 G for 5 min and the supernatant was analyzed with HPLC under the conditions described below.
(3) Human plasma (pooled normal human plasma from George King Biomedical Systems, Inc.)
In the study for human plasma, the test compound was dissolved in TBS. TBS (tris-buffered saline, Sigma) contains 0.05 M Tris, 0.0027 M potassium chloride, and 0.138 M sodium chloride. pH 7.5 at 37° C.
(§2) The HPLC analysis was carried out under the following conditions.

[2] = Stability / hydrolysis in MT-2 cell extract; format: in vitro ADME
Procedure: as §1
(2) MT-2 cell extract was prepared from MT-2 cells according to the published procedure [A. Pompon, I. Lefebvre, J.-L. Imbach, S. Kahn, and D. Farquhar, “Antiviral Chemistry & Chemotherapy”, 5:91-98 (1994)] except for using HEPES buffer described below as the medium.
In the study for MT-2 cell extracts, the test compound was dissolved in HEPES buffer. HEPES buffer contains 0.010 M HEPES, 0.05 M potassium chloride, 0.005 M magnesium chloride, and 0.005 M dl-dithiothreitol. pH 7.4 at 37° C.
as §2

[3] = tested on: PLCE (porcine liver carboxyesterase); experiment: in vitro; format: in vitro ADME; details: 37° C., PBS pH 7.4
Procedure: as §1
(§3) (1) PLCE (porcine liver carboxyesterase from Sigma, 160 u/mg protein, 21 mg protein/mL) diluted 20 fold with PBS (phosphated-buffered saline).
(§4) In the study for PLCE, the test compound was dissolved in PBS. PBS (phosphate-buffered saline, Sigma) contains 0.01 M phosphate, 0.0027 M potassium chloride, and 0.137 M sodium chloride. pH 7.4 at 37° C.
as §2

[4] = tested on: porcine liver carboxyesterase (PLCE); experiment: in vitro; format: in vitro ADME; details: pig; 37° C., PBS pH 7.4; read-out: PLCE hydrolysis rate t1/2
Procedure: as §1, §3, §4, §2

[5] = Incubation of radiolabeled PMPA prodrugs or PMPA in human whole blood; metabolites in plasma, PBMCs and RBCs; format: in vitro ADME; details: human blood; for Total C-14 Recovered: 1 h incubation, 60 μg-eq; for Metabolites (% of Total Peak Area): GS 7340: 1 h
Procedure: After 1 hour, plasma, red blood cells (RBCs) and peripheral blood mononuclear cells (PBMCs) were isolated and analyzed by HPLC with radiometric detection.

[6] = Excretion and tissue distribution of radiolabelled prodrug in dogs; details: dogs; for % Dose / Conc.: oral 10 mg-eq. PMPA/kg
Procedure: Plasma and peripheral blood mononuclear cells (PBMCs) were obtained over the 24-hr period. Urine and feces were cage collected over 24 hr. At 24 h after the dose, the animals were sacrificed and tissues removed for analysis. Total radioactivity in tissues was determined by oxidation and liquid scintillation counting.

[7] = Cytotoxicity in MT-2 cells; details: human
HIV-1 = experiment: microbe, parasite or virus in culture

Compound: CC(C)OC(=O)[C@H](C)N[P@](=O)(CO[C@H](C)Cn1cnc2c(N)ncnc21)Oc1ccccc1 (single isomer, unassigned) [GS-7340]
- Human Plasma Stability (HP) product ([1]; 37° C., TBS pH 7.5): Met. Y
- half-life at 0.04 mg/mL ([1]; pH 7.5, human plasma, read-out: Stability T 1/2 Human Plasma): 90 min
- MT-2 extract hydrolysis product ([2]; 37° C., HEPES buffer pH 7.4): Met. X & PMPA
- half-life at 0.04 mg/mL ([2]; human, pH 7.4, MT-2 cell extract, read-out: Stability T 1/2 MT-2 Cell Extract): 28.3 min
- PLCE hydrolysis product [3]: Met. X & PMPA
- half-life at 0.04 mg/mL [4]: 3.3 min
- Total C-14 Recovered ([5]; PBMC): 1.25 μg-eq
- Metabolites (% of Total Peak Area): GS 7340 ([5]; Plasma/FP): 84%
- Total C-14 Recovered ([5]; Plasma/FP): 43.0 μg-eq
- Metabolites (% of Total Peak Area): GS 7340 ([5]; RBC/FP): 57%
- Total C-14 Recovered ([5]; RBC/FP): 12.6 μg-eq
- radioactivity in plasma due to intact GS-7340 ([5]; plasma after 1 hour): 84%
- % Dose ([6]; Abdominal fat, 24 h): 0.00%
- Conc. ([6]; Abdominal fat, 24 h): 0.90 ug-eq/g
- % Dose ([6]; Adrenal Gland, 24 h): 0.00%
- Conc. ([6]; Adrenal Gland, 24 h): 3.47 ug-eq/g
- % Dose ([6]; Axillary Lymph Nodes, 24 h): 0.01%
- Conc. ([6]; Axillary Lymph Nodes, 24 h): 5.54 ug-eq/g
- % Dose ([6]; Bile, 24 h): 0.22%
- Conc. ([6]; Bile, 24 h): 40.48 ug-eq/g
- % Dose ([6]; Bone Marrow, 24 h): 0.00%
- Conc. ([6]; Bone Marrow, 24 h): 2.05 ug-eq/g
- % Dose ([6]; Brain, 24 h): 0.00%
- Conc. ([6]; Brain, 24 h): <LOD
- % Dose ([6]; Cerebrospinal Fluid, 24 h): 0.00%
- Conc. ([6]; Cerebrospinal Fluid, 24 h): 0.00 ug-eq/g
- % Dose ([6]; Duodenum, 24 h): 0.44%
- Conc. ([6]; Duodenum, 24 h): 8.77 ug-eq/g
- % Dose ([6]; Eye (L + R), 24 h): 0.00%
- Conc. ([6]; Eye (L + R), 24 h): 0.23 ug-eq/g
- % Dose ([6]; Feces, collected over 24 hr): 0.19%
- % Dose ([6]; Femoral Bone, 24 h): 0.00%
- Conc. ([6]; Femoral Bone, 24 h): 0.28 ug-eq/g
- % Dose ([6]; Gall bladder, 24 h): 0.04%
- Conc. ([6]; Gall bladder, 24 h): 25.02 ug-eq/g
- % Dose ([6]; Heart, 24 h): 0.15%
- Conc. ([6]; Heart, 24 h): 1.97 ug-eq/g
- % Dose ([6]; Ileum, 24 h): 0.16%
- Conc. ([6]; Ileum, 24 h): 4.61 ug-eq/g
- % Dose ([6]; Iliac Lymph Nodes, 24 h): 0.01%
- Conc. ([6]; Iliac Lymph Nodes, 24 h): 5.42 ug-eq/g
- % Dose ([6]; Inguinal Lymph Nodes, 24 h): 0.00%
- Conc. ([6]; Inguinal Lymph Nodes, 24 h): 4.12 ug-eq/g
- % Dose ([6]; Jejunum, 24 h): 0.79%
- Conc. ([6]; Jejunum, 24 h): 4.16 ug-eq/g
- % Dose ([6]; Kidney, 24 h): 3.78%
- Conc. ([6]; Kidney, 24 h): 80.21 ug-eq/g
- % Dose ([6]; Large Intestine, 24 h): 2.65%
- Conc. ([6]; Large Intestine, 24 h): 47.20 ug-eq/g
- % Dose ([6]; Liver, 24 h): 16.45%
- Conc. ([6]; Liver, 24 h): 52.94 ug-eq/g
- % Dose ([6]; Lungs, 24 h): 0.34%
- Conc. ([6]; Lungs, 24 h): 4.33 ug-eq/g
- % Dose ([6]; Mesenteric Lymph Nodes, 24 h): 0.04%
- Conc. ([6]; Mesenteric Lymph Nodes, 24 h): 6.88 ug-eq/g
- % Dose ([6]; PBMC): 0.00%
- Conc. ([6]; PBMC, calculated using typical recovery of 15 × 10^6 cells total, mean PBMC volume 0.2 picoliters/cell): 63.20 ug-eq/g
- % Dose ([6]; Pancreas, 24 h): 0.01%
- Conc. ([6]; Pancreas, 24 h): 3.51 ug-eq/g
- % Dose ([6]; Pituitary Gland, 24 h): 0.00%
- Conc. ([6]; Pituitary Gland, 24 h): 1.80 ug-eq/g
- Conc. ([6]; Plasma at 0.25 h): 3.48 ug-eq/g
- % Dose ([6]; Plasma at 24 h): 0.00%
- Conc. ([6]; Plasma at 24 h): 0.20 ug-eq/g
- % Dose ([6]; Prostate, 24 h): 0.00%
- Conc. ([6]; Prostate, 24 h): 2.14 ug-eq/g
- % Dose ([6]; Salivary Gland (L + R), 24 h): 0.03%
- Conc. ([6]; Salivary Gland (L + R), 24 h): 5.54 ug-eq/g
- % Dose ([6]; Skeletal Muscle, 24 h): 0.01%
- Conc. ([6]; Skeletal Muscle, 24 h): 1.12 ug-eq/g
- % Dose ([6]; Skin, 24 h): 0.00%
- Conc. ([6]; Skin, 24 h): 0.95 ug-eq/g
- % Dose ([6]; Spinal Cord, 24 h): 0.00%
- Conc. ([6]; Spinal Cord, 24 h): 0.04 ug-eq/g
- % Dose ([6]; Spleen, 24 h): 0.17%
- Conc. ([6]; Spleen, 24 h): 8.13 ug-eq/g
- % Dose ([6]; Stomach, 24 h): 0.26%
- Conc. ([6]; Stomach, 24 h): 2.68 ug-eq/g
- % Dose ([6]; Testes (L + R), 24 h): 0.02%
- Conc. ([6]; Testes (L + R), 24 h): 2.01 ug-eq/g
- % Dose ([6]; Thyroid Gland, 24 h): 0.00%
- Conc. ([6]; Thyroid Gland, 24 h): 4.78 ug-eq/g
- % Dose ([6]; Total GI Tract Contents, 24 h): 21.64%
- % Dose ([6]; Total Recovery, 24 h): 68.96%
- % Dose ([6]; Urine, collected over 24 hr): 14.73%
- % Dose ([6]; Whole Blood, 24 h): 0.16%
- Conc. ([6]; Whole Blood, 24 h): 0.20 ug-eq/g
- increase of levels of PMPA in the lymphatic tissues, bone marrow, and skeletal muscle ([6]; 24 hours after single oral dose, versus TDF): 10 fold
- CC50 ([7]; CC50, cell culture): ≥ 40000 nM
- CC50 ([7]; Cytotoxicity CC50, MT-2 cells): > 40000 nM
- IC50 (HIV-1; Human immunodeficiency virus 1, MT2): 5 nM
- IC50 (HIV-1; Human immunodeficiency virus 1, MT2, read-out: HIV IC50): 5 nM
- IC50 (HIV-1; Human immunodeficiency virus 1, MT2, read-out: HIV-1 Activity IC50): 5 nM
